# Results reported in patent publication US20240196889A1, “USE OF DI- AND TRI[…] ACIDS IN THE PREVENTION OF BIOFILM FORMATION” (priority 2020, published 2024).
# Experiments:
# [1] = test system: Salmonella Typhimurium ATCC 14028; test: Antibiofilm assay (static peg assay, Calgary biofilm device, crystal violet staining; planktonic growth via OD600); assay type: cell-based, Salmonella enterica serovar Typhimurium
# Procedure: (§1) A static peg assay for the prevention of bacterial biofilm formation was used as described previously. A lid carrying 96 polystyrene pegs was fitted into a microtiter plate with a peg hanging into each well. Two-fold serial dilutions of the compounds in 100 μl liquid broth per well were prepared in the microtiter plate. Subsequently, an overnight culture was diluted 1:100 into the respective liquid broth, and 100 μl (˜10^6 cells) was added to each well of the microtiter plate, resulting in a total amount of 200 μl medium per well. After placing the lid on the microtiter plate, samples containing Salmonella, Pseudomonas or E. coli were incubated statically in TSB 1/20 for 48 h at 25° C., whereas S. aureus was incubated in undiluted TSB at 37° C. for 48 h. After incubation, the lid was removed from the microtiter plate and liquid culture was transferred to a new microtiter plate prior to determining the prior to determining the planktonic growth in each well via OD600 measurements using a Synergy MX multimode reader (Biotek, Winooski, VT). The pegs were washed once in 200 μl PBS and the remaining attached bacteria were stained for 30 min with 200 μl 0.1% crystal violet in an isopropanol-methanol-PBS solution (1:1:18). Excess stain was washed off by placing the pegs in a 96-well plate filled with 200 μl distilled water per well. Afterwards, the pegs were air dried for 30 min and the dye bound to the adherent cells dissolved into 200 μl 30% glacial acetic acid. The OD570 of each well was measured using a Synergy MX multimode reader. Data was analysed using the GraphPad Prism 6 software.
# Salmonella = test: Minimal inhibitory concentration (MIC) assay; assay type: cell-based, Salmonella enterica serovar Typhimurium; details: TSB 1/20, 24 h, 25° C., same conditions as the biofilm assay
# Procedure: MIC values were determined in a 96-well plate. Two-fold serial dilutions of agaric acid or DMSO were prepared in 100 μl of TSB 1/20 and 100 μL of the inoculum diluted 1/100 in TSB 1/20 was added. The plate was covered with a Breathable Sealing Membrane and a lid and incubated for 24 h at 25° C., shaking at 200 rpm.
# [2] = test system: S. Typhimurium ATCC 14028; test: Microscopic analysis of fluorescently labelled biofilms; assay type: cell-based, Salmonella enterica serovar Typhimurium; details: 100 μM, 48 h
# Procedure: ONCs of S. Typhimurium ATCC 14028 containing the pFPV25.1 plasmid encoding for constitutive GFPmut3 productions were normalized to an an OD595 of 3.2 and 20 μl was added to a glass bottom microwell dishes (35 mm Ø petri dish, 20 mm Ø microwell) containing 2 ml 1/20 TSB and 100 μg ml^−1 of ampicillin and a final concentration of 100 μM agaric or the corresponding amount of DMSO. Around 12*10^7 ml^−1 cells were inoculated and incubated under static conditions at 25° C. for 48 h. After incubation, the planktonic phase was gently poured off and the biofilm was washed with 1 ml PBS. Biofilms were visualized with […]
# [3] = test system: Salmonella genes related to biofilm formation; test: Microtiter-plate-based GFP promoter fusion assay; assay type: cell-based, Salmonella Typhimurium ATCC 14028; details: 100 μM
# Procedure: To unravel the mechanism by which agaric acid inhibits biofilm formation, an in house developed reporter GFP-promoter fusion library was screened. This library contains reporters for 130 Salmonella genes related to biofilm formation, including genes regulating matrix production, fimbriae and flagella synthesis, quorum sensing and c-di-GMP regulation (Table 2) [Robijns et al. (2014). Biofouling 30, 605-625.]. A time-lapse of the first 24 h of biofilm formation in microtiter plates was performed to identify genes that are differentially transcribed in the presence of 100 μM agaric acid. As these reporter fusions express the stable GFPmut3 variant as a fluorophore, the measured fluorescence values are the accumulation of fluorescence over time [Robijns et al. (2014). Biofouling 30, 605-625](FIG. 2).
# 1.5 μl of the reporter fusions' ONCs were transferred in three repeats to black polystyrene, clear-bottomed microtiter plates (Greiner bio-one 655096) containing 200 μl of 1/20 TSB with either a final concentration of 100 μM agaric or the corresponding amount of DMSO. Subsequently, the microtiter plates were incubated statically, at 25° C. for 24 h. Every 3 h, the fluorescence (excitation 488 nm, emission 511 nm) and absorbance at 600 nm (OD600) were measured using a Synergy MX multimode reader. For data analysis, blank measurements were subtracted from both the fluorescence (using a promoterless pFPV25 vector as control) and OD600. The ratio between the different OD600 values of the strains/conditions was used to normalize any effects on the fluorescence caused by growth differences in the bacteria. Significant differences in the level of fluorescence between treatment and control were determined using a two-tailed Student t-test (P<0.05).
# motA deletion mutant = test: Biofilm formation of motA deletion mutant; assay type: cell-based, Salmonella; details: addition of agaric acid to the deletion mutant
# E. coli TG1 = test: Antibiofilm assay (Calgary biofilm device); assay type: cell-based, Escherichia coli
# Procedure: as §1, with “Excess stain was washed off by placing the pegs in a 96-well plate filled with 200 μl distilled water per well. Afterwards, the pegs were air dried for 30 min and the dye bound to the adherent cells dissolved into 200 μl 30% glacial acetic acid.” left out
# P. aeruginosa PA14 = test: Antibiofilm assay (Calgary biofilm device); assay type: cell-based, Pseudomonas aeruginosa
# Procedure: as §1
# [4] = test system: S. Typhimurium SL1344 (S1) in mixed-species biofilm with S2 and E1; test: Mixed-species tolerance assay (CFU); assay type: cell-based, Salmonella Typhimurium and E. coli
# Procedure: The monospecies and mixed-species biofilms were grown on petri dishes for 48 h at 25° C. as described above. The medium was then replaced by 5 ml PBS with either 0.25% H2O2 or 1 μM ciprofloxacin and the biofilms were incubated for an additional 1 h at 25° C. Subsequently, the biofilms were scraped off and plated out on solid LB agar plates for CFU determination. To differentiate between the strains, S1 was labelled with constitutive gfpmut3 on a plasmid, while S2 and E1 were labelled with plasmid-encoded constitutive dsRed.T4. Differences in colony shape and size allowed differentiation between S2 and E1 during CFU counting.
smiles,measurement,setting,value
"CCCCCCCCCCCCCCCCC(C(=O)O)C(O)(CC(=O)O)C(=O)O (stereo not shown) [Agaric acid, 2-hydroxynonadecane-1,2,3-tricarboxylic acid]",inhibition at 800 µM,"[1]; Salmonella enterica, at 800 μM, crystal violet staining, read-out: inhibition of biofilm formation",99.9%
same,planktonic growth (OD600),[1]; after 48 h incubation in the Calgary biofilm device,not inhibited
same,concentrations at which biofilm formation is significantly prevented,"[1]; crystal violet staining, TSB 1/20, 48 h, 25° C.",higher than 100 μM
same,planktonic growth (OD600) at the highest concentration,[1]; highest concentration tested,enhanced
same,MIC,Salmonella,8 mM
same,biofilm density by microscopy,[2],less dense compared to the control
same,"transcription of class III flagellar genes flgM, flgK and motA",[3],significantly reduced
same,"transcription of tdcA, flgB, fljB and fliC",[3],not decreased at consecutive points
same,transcription of flhDC,[3]; between 9 h and 15 h,increased compared to the control
same,transcription of csgB and adrA,[3]; first 24 h,not influenced
same,transcription of central biofilm regulatory genes CsgD and RpoS,[3]; first 24 h of biofilm formation,not downregulated
same,transcription of flagellar sigma factor fliA,[3]; from 12 h onwards,significantly inhibited
same,biofilm formation of motA deletion mutant,motA deletion mutant,did not further reduce biofilm formation
same,planktonic growth (OD600),E. coli TG1,"unaffected, except for an increase at the highest concentration"
same,concentration at which significant biofilm inhibition already occurred,E. coli TG1; crystal violet staining,12.5 µM
same,planktonic growth (OD600),P. aeruginosa PA14,inhibits
same,biofilm inhibition versus planktonic growth inhibition,P. aeruginosa PA14; comparison of effective concentrations,planktonic growth is reduced at lower concentrations than biofilm inhibition
same,biofilm formation,P. aeruginosa PA14; crystal violet staining,inhibits
same,biofilm inhibition versus planktonic growth inhibition at high concentrations,P. aeruginosa PA14; high concentrations of agaric acid,biofilm formation is inhibited to a higher extent than planktonic growth
same,enhanced tolerance of S1 in mixed-species conditions,"[4]; 0.25% H2O2 or 1 μM ciprofloxacin, 1 h",completely abolished the enhanced tolerance of S1
same,number of S1 cells surviving antimicrobial treatment in mixed-species communities,[4]; in presence of agaric acid,lowest number of S1 cells surviving antimicrobial treatment
same,tolerance of remaining biofilm cells towards ciprofloxacin and H2O2,"[4]; preventive treatment, 0.25% H2O2 or 1 μM ciprofloxacin, 1 h",reduced the tolerance of the remaining biofilm cells
